Among the data in PubChem BioAssay AID330 (DTP/NCI, 2004) are T/C values, retold here.

Values joined by “and” are separate entries in the source; they are usually repeats but may differ in a detail not shown here. Equal entries are not always repeated. Inconclusive results and toxic doses are left out. Square brackets hold non-standard residues; d marks the D form. Peptide text beside a SMILES is read from it. * marks the point of attachment. ξ: configuration not given here. Cbz = O=C(OCc1ccccc1)*; ξP = O=C(O)C1CCCN1

The subject of this assay is P388 leukemia ip, CD2F1 mice, survival T/C. Description: NCI In Vivo Anticancer Drug Screen. Data for tumor model P388 Leukemia (intraperitoneal) in CD2F1 (CDF1) mice. Conditions: endpoint: median survival time, higher = longer survival. In outline:
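Mice carrying the transplanted tumor received test compound or vehicle. Survival was recorded in each group, and the value is the treated-group measurement divided by that of the vehicle-treated control group.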

[1] abbreviates: dose: 50.0 mg/kg/injection, schedule: Q01DX009 (ip), vehicle: saline with Tween-80.
The mark [2] stands for this setting: dose: 100.0 mg/kg/injection, schedule: Q01DX009 (ip), vehicle: saline with Tween-80.
The mark [3] stands for this setting: dose: 200.0 mg/kg/injection, schedule: Q01DX009 (ip), vehicle: saline with Tween-80.
Where [4] appears, read: dose: 3.13 mg/kg/injection, schedule: Q04DX003 (ip), vehicle: distilled water + Tween-80.
The mark [5] stands for this setting: dose: 6.25 mg/kg/injection, schedule: Q04DX003 (ip), vehicle: distilled water + Tween-80.
Setting [6] is: dose: 12.5 mg/kg/injection, schedule: Q04DX003 (ip), vehicle: distilled water + Tween-80.
Where [7] appears, read: dose: 25.0 mg/kg/injection, schedule: Q04DX003 (ip), vehicle: distilled water + Tween-80.
Where [8] appears, read: dose: 50.0 mg/kg/injection, schedule: Q04DX003 (ip), vehicle: distilled water + Tween-80.
Where [9] appears, read: dose: 60.0 mg/kg/injection, schedule: Q01DX005 (ip), vehicle: Klucel (hydroxypropylcellulose) (HPC).
Setting [10] is: dose: 120.0 mg/kg/injection, schedule: Q01DX005 (ip), vehicle: Klucel (hydroxypropylcellulose) (HPC).

On to `O=C(O)CNC(=O)C1CCCN1C(=O)OCc1ccccc1` (configuration not stated) (Cbz-[ξP]-Gly-OH), for which the T/C reads like this: (dose: 50.0 mg/kg/injection, schedule: Q01DX005 (ip), vehicle: saline with Tween-80) 100 % of control; (dose: 100.0 mg/kg/injection, schedule: Q01DX005 (ip), vehicle: saline with Tween-80) 91 % of control; (dose: 200.0 mg/kg/injection, schedule: Q01DX005 (ip), vehicle: saline with Tween-80) 91 % of control.

Consider `COC(=O)[C@@]12OC[C@]34[C@H]([C@@H](O)[C@@H]1O)[C@@]1(C)CC(=O)C(OC(=O)CC(=O)OC5=C(C)[C@@H]6C[C@H]7OC(=O)[C@H](OC(=O)C=C(C)C)[C@H]8[C@]9(C(=O)OC)OC[C@]78[C@H]([C@@H](O)[C@@H]9O)[C@@]6(C)CC5=O)=C(C)[C@@H]1C[C@H]3OC(=O)[C@H](OC(=O)C=C(C)C)[C@@H]24`, for which the T/C (dose: 0.3 mg/kg/injection, schedule: Q01DX009 (ip), vehicle: saline with Tween-80) is 106 % of control; the T/C (dose: 0.6 mg/kg/injection, schedule: Q01DX009 (ip), vehicle: saline with Tween-80) is 107 % of control; the T/C (dose: 0.9 mg/kg/injection, schedule: Q01DX009 (ip), vehicle: saline with Tween-80) was 113 % of control.

As for `CSCCc1nc(C)oc1C`, the T/C runs as follows: under setting [1], 94 % of control; under setting [2], 100 % of control; under setting [3], 102 % of control.

For the compound `COc1cccc2c1C(=O)c1c(O)c3c(c(O)c1C2=O)C[C@@](O)(C(C)=O)C[C@@H]3OC1CC([N+]([O-])(Cc2ccccc2)Cc2ccccc2)C(O)C(C)O1` (some centres not stated), the T/C runs as follows: under setting [4], 114 % of control; under setting [5], 108 % of control and 121 % of control; under setting [6], 123 % of control; under setting [7], 150 % of control and 183 % of control; under setting [8], 185 % of control and 212 % of control; (dose: 100.0 mg/kg/injection, schedule: Q04DX003 (ip), vehicle: distilled water + Tween-80) 237 % of control.

As to `CCOC(=O)N1CCc2cc(OC)c(OC)cc2/C1=C/c1ccsc1`, the T/C is, setting by setting: (dose: 50.0 mg/kg/injection, schedule: Q01DX005 (ip), vehicle: Klucel (hydroxypropylcellulose) (HPC)) 105 % of control; (dose: 100.0 mg/kg/injection, schedule: Q01DX005 (ip), vehicle: Klucel (hydroxypropylcellulose) (HPC)) 102 % of control; (dose: 200.0 mg/kg/injection, schedule: Q01DX005 (ip), vehicle: Klucel (hydroxypropylcellulose) (HPC)) 96 % of control.

In the case of `O=C(O)COc1ccc(F)c(F)c1`, the T/C is, setting by setting: under setting [9], 101 % of control and 104 % of control; under setting [10], 106 % of control and 94 % of control; (dose: 240.0 mg/kg/injection, schedule: Q01DX005 (ip), vehicle: Klucel (hydroxypropylcellulose) (HPC)) 100 % of control and 86 % of control.

With `COC1=C(C#N)C(c2ccccc2)CC(N)=N1` (configuration not stated), the T/C was 112 % of control under setting [9] and 94 % of control under setting [10].

Regarding `O=S1(=O)N=C(c2ccccc2)CC(c2ccccc2)N1` (configuration not stated), the T/C by setting is: under setting [1], 100 % of control; under setting [2], 90 % of control; under setting [3], 90 % of control.

Regarding `C=COC(=O)CCCCCCCC`, the T/C was 103 % of control (dose: 100.0 mg/kg/injection, schedule: Q04DX003 (ip), vehicle: Klucel (hydroxypropylcellulose) (HPC)); 105 % of control (dose: 200.0 mg/kg/injection, schedule: Q04DX003 (ip), vehicle: Klucel (hydroxypropylcellulose) (HPC)); 95 % of control (dose: 400.0 mg/kg/injection, schedule: Q04DX003 (ip), vehicle: Klucel (hydroxypropylcellulose) (HPC)).

For `COc1cccc2c1C(=O)c1c(O)c3c(c(O)c1C2=O)CC(O)(C(C)=O)CC3OC1CC(NC(=O)C(F)(F)F)C(OC(=O)c2ccc([N+](=O)[O-])cc2)C(C)O1` (configuration not stated), the T/C by setting is: under setting [4], 102 % of control and 98 % of control; under setting [5], 101 % of control and 100 % of control; under setting [6], 99 % of control and 97 % of control; under setting [7], 111 % of control and 108 % of control; under setting [8], 95 % of control and 100 % of control.

In the case of `CC(=O)SSC12CC3CC(CC(C3)C1)C2`, the T/C (dose: 30.0 mg/kg/injection, schedule: Q01DX005 (ip), vehicle: saline with Tween-80) was 100 % of control; the T/C (dose: 60.0 mg/kg/injection, schedule: Q01DX005 (ip), vehicle: saline with Tween-80) was 100 % of control and 101 % of control; the T/C (dose: 120.0 mg/kg/injection, schedule: Q01DX005 (ip), vehicle: saline with Tween-80) is 100 % of control and 104 % of control.
